From ChEMBL document CHEMBL3507680, “University of Dundee, Gates Library screen for HepG2 cell viability”

Test: Human HepG2 cell viability assay in 384 well format
Type: toxicity, cell-based
Design: dose 125 nL, time 70.5 hour; cytotoxicity at 70.5 h: concentration not given beside the values
Conditions: HepG2 cells, read-out: Inhibition

Compound	cytotoxicity at 70.5 h [%]
CC(C)c1n[nH]c(C2CN(C(=O)c3ccnc(C4CC4)n3)CCO2)n1 (stereo not drawn)	16.3
CCc1nncn1CCNC(=O)N1CCN(Cc2ccccc2)CC1	3.82
CCn1cnnc1CNC(=O)N1CCN(Cc2ccsc2)CC1	2.69
CCn1cc(CN2CCCN(C(=O)c3ccc(C)nc3)CC2)cn1	-6.02
Cc1ocnc1C(=O)N1CCCN(Cc2cscn2)CC1	21.9
Cc1nc(CN(Cc2ccc3c(c2)OCCO3)C2CCCC2)no1	-7.64
Cc1nc(CN(C)C2CCN(Cc3ccc(C(N)=O)cc3)C2)no1 (stereo not drawn)	-11.2
Cc1nn(C)c(N2CCOCC2)c1CNCc1ccccc1CO	-10.1
CCn1cc(CN2CCCN(C(=O)c3cc(C)no3)CC2)cn1	-2.69
CC(C)c1nnc(CNC2CCCN(Cc3noc(C4CC4)n3)C2)o1 (stereo not drawn)	-5.67
CCn1cc(CN2CCCN(C(=O)c3ccco3)CC2)cn1	-6.43
Cc1ccoc1C(=O)N1CCCN(Cc2cnn(C)c2)CC1	-17.4
COc1cc2ccccc2cc1C(=O)N1CCCC(c2nncn2C)C1 (stereo not drawn)	-11.4
CCc1nc(CN2CCCC(NCc3nc(C)c(C)o3)C2)no1 (stereo not drawn)	-10.5
CCOc1ncccc1C(=O)N1CCCC(c2nncn2C)C1 (stereo not drawn)	-3.42
Cc1nn(C)c(C)c1C1CCCN1C(=O)c1ccnc(N(C)C)c1 (stereo not drawn)	-14.3
COc1c(C2CCCN2C(=O)c2cnccn2)c(C)nn1C (stereo not drawn)	20.2
CCc1nnc(CNC2CCCN(Cc3noc(C4CC4)n3)C2)o1 (stereo not drawn)	-9.18
Cc1nc(CN(C)C2CCN(Cc3ccc4c(c3)CCC4)C2)no1 (stereo not drawn)	-9.34
Cn1cnnc1C1CCCN(C(=O)COc2ccccc2Cl)C1 (stereo not drawn)	-6.87
Cn1cnnc1C1CCCN(C(=O)c2cc(Cl)cc(Cl)c2)C1 (stereo not drawn)	-8.15
CN(C)c1cc(CNC(=O)c2n[nH]c(=O)c3ccccc23)ccn1	12.8
Cn1cnnc1C1CCCN(C(=O)c2cc3ccccc3[nH]2)C1 (stereo not drawn)	-11.2
Cc1nn(C)c(N2CCOCC2)c1CNCc1ccc(N(C)C)nc1	15.7

Compound	cytotoxicity at 70.5 h [%]
Cc1nn(C)c(N2CCOCC2)c1CNCc1ccnn1C	-9.28
COc1ncccc1CNCc1c(C)nn(C)c1N1CCOCC1	-12.3
CN(C)c1cc(CNC(=O)c2cc(Cl)ccn2)ccn1	-11.8
CCn1cc(CN2CCCN(C(=O)c3ccoc3C)CC2)cn1	-7.59
CCn1cc(CN2CCCN(C(=O)c3c(C)oc(C)c3C)CC2)cn1	-12.8
CNc1cc2c(nn1)CCN(C(=O)c1cc(C)no1)C2	-7.41
CNc1cc2c(nn1)CCN(C(=O)c1ccc3c(c1)CCC3)C2	-4.27
COc1c(C2CCCN2C(=O)c2ccc(C#N)cc2)c(C)nn1C (stereo not drawn)	-9.49
O=C(CCc1nccs1)N1CCN(c2nccs2)CC1	-7.6
CCC1CN(CC(=O)Nc2cc(C)nn2C)CCO1 (stereo not drawn)	-5.03
Cn1cnnc1C1CCN(C(=O)Cc2ccc3c(c2)OCCO3)CC1	-2.32
Cc1cnn(CC2CCCN2C(=O)c2cccc3c2OCO3)c1 (stereo not drawn)	-5.23
Cc1cccc2c1CCN(c1cc(N3CCCC3CO)ncn1)C2 (stereo not drawn)	-10.5
CC(NC(=O)NCCOc1ccc(Cl)cc1)c1nncn1C (stereo not drawn)	-12.4
COc1ccc(CC(=O)N2CCCC(c3nncn3C)C2)cc1 (stereo not drawn)	-2.88
COc1ccc(C(=O)N(C)Cc2ncc(C)c(OC)c2C)c(OC)c1	-4.31
COCCOc1ccccc1C(=O)N(C)Cc1ncc(C)c(OC)c1C	-5.65
Cc1cc(C)c(C)c(OCCCNC(=O)NC(C)c2nncn2C)c1 (stereo not drawn)	14.5
Fc1cccc(CN2CCN(Cc3cscn3)CC2)c1	-4.73
COc1cccc(C(=O)N(C)Cc2ncc(C)c(OC)c2C)c1OC	-0.629
COCc1ccccc1C(=O)N(C)Cc1ncc(C)c(OC)c1C	19.4
NC(=O)C1CCCN1c1cc(N2CCc3ccccc3C2)ncn1 (stereo not drawn)	-5.82
c1cnnc(N2CCCC(NCc3ccc(-n4cncn4)cc3)C2)c1 (stereo not drawn)	-3.17
Cc1noc2ncc(C(=O)N3CCCC(n4ccnc4C)C3)cc12 (stereo not drawn)	-7.39

Compound	cytotoxicity at 70.5 h [%]
O=C(c1ccccc1OCC1CC1)N1CCCC1Cn1cccn1 (stereo not drawn)	17.7
O=C1COc2c(cccc2C(=O)N2CCCC2Cn2cccn2)N1 (stereo not drawn)	-8.08
CN1CCN(c2cc(N3CCCC3CO)ncn2)Cc2ccccc21 (stereo not drawn)	17.8
COc1ccc2c(c1)CN(c1cc(N3CCCC3CO)ncn1)CC2 (stereo not drawn)	-7.51
CC(C)c1n[nH]c(C2CN(Cc3nnc(C4CC4)n3C)CCO2)n1 (stereo not drawn)	-7.72
Cc1nc(CN2CCCC(N(C)Cc3nnc(C4CC4)o3)C2)no1 (stereo not drawn)	13.8
CC(C)c1nnc2n1CCN(C(=O)c1cccc(OCC(N)=O)c1)C2	-2.06
CC(C)c1nc(CN2CCCC2CN2CCCC2)cs1 (stereo not drawn)	-7.95
CCN1CCN(Cc2csc(C(C)C)n2)CC1	-8.86
Cc1nc(C)n(CC2CCCCN2Cc2cscn2)n1 (stereo not drawn)	-5.99
Cc1nc(C)n(CC2CCCN2Cc2ccccn2)n1 (stereo not drawn)	-6.2
CCC(O)CN1CCN(C(=O)Cc2nc(-c3ccco3)oc2C)CC1 (stereo not drawn)	-2.09
Cc1nc(C)n(CC2CCCN2Cc2cnc(C)s2)n1 (stereo not drawn)	-8.97
Cc1nc(CN2CCCC2Cn2cncn2)nc2ccccc12 (stereo not drawn)	-12.1
CC(C)c1nc(CN2CCOCC2)cs1	7.98
CN(Cc1ccccc1)C(=O)CS(=O)(=O)Cc1ccc(Cl)c(Cl)c1	-4.65
CCOc1ccc(CC(CNC(=O)c2sccc2C)C(N)=O)cc1 (stereo not drawn)	-1.61
CCOc1ccc(CC(CNC(=O)c2ccc(C)o2)C(N)=O)cc1 (stereo not drawn)	-10.7
O=C(c1ccc2[nH]nnc2c1)N1CCCC(n2cccn2)C1 (stereo not drawn)	-5.26
Cc1nnc2n1CCN(CC(=O)Nc1cc(C(C)C)no1)C2	-8.51
COc1ccccc1CC1CCCN(CCC(N)=O)C1 (stereo not drawn)	5.7
CCc1nnc2n1CCN(CCC(=O)Nc1cc(C)on1)C2	-5.92
CC(C)c1nccn1C1CCCN(C(=O)c2ccsc2)C1 (stereo not drawn)	-2.65
Cc1cn2c(n1)CCC(NC(=O)c1cc(C(C)C)no1)C2 (stereo not drawn)	-7.72

Compound	cytotoxicity at 70.5 h [%]
Cc1n[nH]c(C2CN(C(=O)c3cc(C4CC4)[nH]n3)CCO2)n1 (stereo not drawn)	4.51
Cc1n[nH]c(C2CN(C(=O)c3cnc[nH]3)CCO2)n1 (stereo not drawn)	-11.1
Cc1nc(CNCC2CCCN2c2cccnn2)no1 (stereo not drawn)	-1.22
COc1ccc(CCC(=O)N2CCCC2Cn2cc(C)cn2)cc1F (stereo not drawn)	-6.64
Fc1ccc(CN2CCCN(Cc3cscn3)CC2)cc1	23.4
CCc1n[nH]c(C2CN(Cc3nccn3CC)CCO2)n1 (stereo not drawn)	22.2
Cn1cnnc1C1CCCN(C(=O)Cc2ccc3c(c2)OCCO3)C1 (stereo not drawn)	0.026
O=C(CCNC(=O)c1ccoc1)Nc1c(F)cccc1F	-1.23
CCOc1ncccc1C(=O)N(C)Cc1ncc(C)c(OC)c1C	-2.95
c1ccc(CN2CCN(Cc3cscn3)CC2)cc1	-6.7
Cc1ccccc1CN1CCN(CC(=O)Nc2cccnc2)CC1	5.17
O=C(CCCOc1ccc(F)cc1)N1CCCC(n2cccn2)C1 (stereo not drawn)	0.781
O=C(CN1CCOC(Cn2cccn2)C1)Nc1nncs1 (stereo not drawn)	34.7
Cc1nc(CN2CCN(CC(=O)Nc3c(C)cccc3C)CC2)no1	-5.01
CC(C)c1nccn1C1CCCN(C(=O)c2ccc3[nH]nnc3c2)C1 (stereo not drawn)	30.1
O=C(c1cccc2c1OCO2)N1CCCC1Cn1cccn1 (stereo not drawn)	-8.17
CC(C)c1nnc2n1CCN(CC(=O)Nc1nncs1)C2	-6.91
CC(C)c1nnc2n1CCN(C(=O)c1ccc(-n3cnnc3)cc1)C2	27.3
O=C(c1cccnc1N1CCOCC1)N1CCCC1Cn1cccn1 (stereo not drawn)	-8.41
Cc1n[nH]c(C)c1NC(=O)CN1CCOC(Cn2cccn2)C1 (stereo not drawn)	0.504
Cc1nc(CN2CCCC(N(C)Cc3cscn3)C2)no1 (stereo not drawn)	4.42
COCCc1noc(CNC2CCc3nc(C(C)C)nn3C2)n1 (stereo not drawn)	-5
Cc1nc(C)n(C2CCCN(C(=O)c3ccc(N(C)C)nn3)C2)n1 (stereo not drawn)	-3.22
CC(C)c1nc(CN2CCN(CC3CCCO3)CC2)cs1 (stereo not drawn)	-2.13

Compound	cytotoxicity at 70.5 h [%]
CCn1cnnc1C1CCN(C(=O)C(OC)c2ccccc2)CC1 (stereo not drawn)	-0.299
Cn1cnnc1C1CCCN(C(=O)NCCOc2ccccc2)C1 (stereo not drawn)	40.2
CC(=O)Nc1nc(C(=O)NC(C)c2ccc(F)cc2)cs1 (stereo not drawn)	-13.6
CC(OCC(F)(F)F)C(=O)NCc1ccc(-n2cncn2)nc1 (stereo not drawn)	-12.1
CNS(=O)(=O)c1ccc(CNC(=O)NCC2CCCO2)cc1 (stereo not drawn)	-20.2
CCN(Cc1ccc2c(c1)OCCO2)C(=O)NCc1nc(C)cs1	-27.9
Cc1nnc(N2CCC(CNC(=O)OC(C)(C)C)CC2)c(C#N)c1C	1.28
Cc1nc(CN2CCCN(C(=O)c3ccccn3)CC2)oc1C	-10.4
Cc1cccc2nc(C(=O)N3CCC(Nc4cccnn4)CC3)cn12	-21.3
CC(NC(=O)NCc1cccc(N2CCCC2=O)c1)c1ccccc1 (stereo not drawn)	-12.2
O=C(c1cccc2cccnc12)N1CCCN(c2cccnn2)CC1	-10.5
O=C(c1ccccc1-n1cccn1)N1CCCN(c2cccnn2)CC1	-21.8
O=C(Nc1cc(F)ccc1OCC1CCCO1)c1ccccn1 (stereo not drawn)	-8.61
Cc1cc(CN2CCOC(CN(C)c3cccnn3)C2)no1 (stereo not drawn)	-11.5
O=C1CCCCN1c1cccc(CNC2CCCC2)c1	-17.9
O=C(c1cccn2ccnc12)N1CCCN(c2cccnn2)CC1	-20.2
Cc1nc(CN2CCOC(CN(C)c3cccnn3)C2)cs1 (stereo not drawn)	-12.9
CCn1cnnc1C1CCN(C(=O)COCCc2ccccc2)CC1	-3.71
Cc1ccc(-c2nc(CN3CCn4c(nnc4C4CC4)C3)cs2)o1	14.8
Cc1cc(C(=O)NCCn2nc3ccccn3c2=O)[nH]n1	-13.9
Cc1ccsc1CNC1CCCc2c1cnn2C (stereo not drawn)	-2.66
Cc1ccc(CNC2CCCc3c2cnn3C)s1 (stereo not drawn)	-4.42
